Test results from patent US7943575B2, “Sustained release drug formulations containing a carrier peptide” (Ipsen Pharma S.A.S., priority 2002, dated 2011).
Read-outs that look alike come from different tables or passages of the source.

Assay: Pharmacokinetic profile of a SOMATULINE/DECAPEPTYL composition in beagle dogs (RIA of blood samples)
Type: in vivo
Source text: Once a particular peptide or peptide salt is found to gel in an in vitro assay, e.g., an assay as described above, an in vivo assay can be used to determine the suitability of that peptide salt for use as a sustained-release carrier peptide of a therapeutic agent or agents in animals or humans. A blood level release profile for the carrier peptide and/or the therapeutic agent or agents can be determined by injecting the composition into an animal, e.g., a Sprague Dawley rat, a dog, etc., and testing blood samples taken at specific time intervals, e.g., hourly intervals over 1 to 5 days, or 12 or 24 hour intervals over 5 to 45 days, for the concentration of the peptide and/or therapeutic agent or agents. The suitability of a particular peptide gel, or a peptide/carrier gel, for therapeutic delivery of the carrier peptide and/or therapeutic agent or agents can thus be determined.
Generally, in such an assay animals are anaesthetized with pentobarbital (60 mg/kg i.p. for rats), and a jugular vein is cannulated for blood sampling. A test semisolid suspension or solid composition (or standard solution for comparison purposes), e.g., a SOMATULINE/DECAPEPTYL mixture, is injected subcutaneously at a specific dosage, e.g., 1.0, 3.0, or 6.0 mg/kg of SOMATULINE. After administration of the composition or solution, heparinized blood samples are obtained through the cannula at set time intervals, and plasma is separated after centrifugation. The amount of carrier peptide and/or therapeutic agent(s) in the plasma samples is/are determined by, e.g., a standard radioimmunoassay (RIA) technique that allows a direct measurement of the carrier peptide and/or therapeutic agent(s) without extraction from the rat plasma. The resulting data are plotted (e.g., blood concentration (ng/ml) vs. time) to establish a blood level release profile.
0.15 ml of the foregoing semisolid mixture from Example 1 was loaded into a 0.3 ml insulin syringe and was injected into beagle dogs. Blood samples were collected and standard radioimmunoassay (RIA) analysis was performed thereon.

CC(C)C[C@H](NC(=O)[C@@H](Cc1c[nH]c2ccccc12)NC(=O)[C@H](Cc1ccc(O)cc1)NC(=O)[C@H](CO)NC(=O)[C@H](Cc1c[nH]c2ccccc12)NC(=O)[C@H](Cc1c[nH]cn1)NC(=O)[C@@H]1CCC(=O)N1)C(=O)N[C@@H](CCCNC(=N)N)C(=O)N1CCC[C@H]1C(=O)NCC(N)=O [DECAPEPTYL]
level at 0.24 h (beagle, dog, in vivo, 0.15 ml): 2.66 ng/mL | level at 0.48 h (beagle, dog, in vivo, 0.15 ml): 6.04 ng/mL | level at 0.96 h (beagle, dog, in vivo, 0.15 ml): 9.97 ng/mL | level at 1.92 h (beagle, dog, in vivo, 0.15 ml): 16.4 ng/mL | level at 4.08 h (beagle, dog, in vivo, 0.15 ml): 17.3 ng/mL | level at 6 h (beagle, dog, in vivo, 0.15 ml): 21.2 ng/mL | level at 9.12 h (beagle, dog, in vivo, 0.15 ml): 23.1 ng/mL | level at 24 h (beagle, dog, in vivo, 0.15 ml): 8.11 ng/mL | level at 47.76 h (beagle, dog, in vivo, 0.15 ml): 3.97 ng/mL | level at 72.48 h (beagle, dog, in vivo, 0.15 ml): 3.16 ng/mL | level at 144.96 h (beagle, dog, in vivo, 0.15 ml): 1.35 ng/mL | level at 192.96 h (beagle, dog, in vivo, 0.15 ml): 0.94 ng/mL | level at 241.44 h (beagle, dog, in vivo, 0.15 ml): 0.5 ng/mL | level at 312.96 h (beagle, dog, in vivo, 0.15 ml): 0.42 ng/mL | level at 361.2 h (beagle, dog, in vivo, 0.15 ml): 0.32 ng/mL | level at 408.48 h (beagle, dog, in vivo, 0.15 ml): 0.24 ng/mL | level at 483.36 h (beagle, dog, in vivo, 0.15 ml): 0.19 ng/mL | level at 528.96 h (beagle, dog, in vivo, 0.15 ml): 0.13 ng/mL | level at 577.44 h (beagle, dog, in vivo, 0.15 ml): 0.11 ng/mL | level at 650.88 h (beagle, dog, in vivo, 0.15 ml): 0.07 ng/mL | duration of sustained release of therapeutic levels in the blood (dog, in vivo): one month or longer

CC(C)[C@@H]1NC(=O)[C@H](CCCCN)NC(=O)[C@@H](Cc2c[nH]c3ccccc23)NC(=O)[C@H](Cc2ccc(O)cc2)NC(=O)[C@@H](NC(=O)[C@H](N)Cc2ccc3ccccc3c2)CSSC[C@@H](C(=O)N[C@H](C(N)=O)[C@@H](C)O)NC1=O [SOMATULINE, lanreotide]
level at 0 h (dog, in vivo, TIME 0.00 days, beagle dogs, 0.15 ml Example 1 semisolid mixture injected, read-out: concentration in blood samples (RIA)): 0.02 ng/mL | level at 0.24 h (dog, in vivo, TIME 0.01 days, beagle dogs, 0.15 ml Example 1 semisolid mixture injected, read-out: concentration in blood samples (RIA)): 3.91 ng/mL | level at 0.48 h (dog, in vivo, TIME 0.02 days, beagle dogs, 0.15 ml Example 1 semisolid mixture injected, read-out: concentration in blood samples (RIA)): 7.29 ng/mL | level at 0.96 h (dog, in vivo, TIME 0.04 days, beagle dogs, 0.15 ml Example 1 semisolid mixture injected, read-out: concentration in blood samples (RIA)): 9.34 ng/mL | level at 1.92 h (dog, in vivo, TIME 0.08 days, beagle dogs, 0.15 ml Example 1 semisolid mixture injected, read-out: concentration in blood samples (RIA)): 12.6 ng/mL | level at 4.08 h (dog, in vivo, TIME 0.17 days, beagle dogs, 0.15 ml Example 1 semisolid mixture injected, read-out: concentration in blood samples (RIA)): 17.3 ng/mL | level at 6 h (dog, in vivo, TIME 0.25 days, beagle dogs, 0.15 ml Example 1 semisolid mixture injected, read-out: concentration in blood samples (RIA)): 19.5 ng/mL | level at 9.12 h (dog, in vivo, TIME 0.38 days, beagle dogs, 0.15 ml Example 1 semisolid mixture injected, read-out: concentration in blood samples (RIA)): 17.8 ng/mL | level at 24 h (dog, in vivo, TIME 1.00 days, beagle dogs, 0.15 ml Example 1 semisolid mixture injected, read-out: concentration in blood samples (RIA)): 11.4 ng/mL | level at 47.76 h (dog, in vivo, TIME 1.99 days, beagle dogs, 0.15 ml Example 1 semisolid mixture injected, read-out: concentration in blood samples (RIA)): 9.51 ng/mL | level at 72.48 h (dog, in vivo, TIME 3.02 days, beagle dogs, 0.15 ml Example 1 semisolid mixture injected, read-out: concentration in blood samples (RIA)): 7.77 ng/mL | level at 144.96 h (dog, in vivo, TIME 6.04 days, beagle dogs, 0.15 ml Example 1 semisolid mixture injected, read-out: concentration in blood samples (RIA)): 6.63 ng/mL | level at 192.96 h (dog, in vivo, TIME 8.04 days, beagle dogs, 0.15 ml Example 1 semisolid mixture injected, read-out: concentration in blood samples (RIA)): 5.99 ng/mL | level at 241.44 h (dog, in vivo, TIME 10.06 days, beagle dogs, 0.15 ml Example 1 semisolid mixture injected, read-out: concentration in blood samples (RIA)): 4.88 ng/mL | level at 312.96 h (dog, in vivo, TIME 13.04 days, beagle dogs, 0.15 ml Example 1 semisolid mixture injected, read-out: concentration in blood samples (RIA)): 3.14 ng/mL | level at 361.2 h (dog, in vivo, TIME 15.05 days, beagle dogs, 0.15 ml Example 1 semisolid mixture injected, read-out: concentration in blood samples (RIA)): 2.54 ng/mL | level at 408.48 h (dog, in vivo, TIME 17.02 days, beagle dogs, 0.15 ml Example 1 semisolid mixture injected, read-out: concentration in blood samples (RIA)): 1.85 ng/mL | level at 483.36 h (dog, in vivo, TIME 20.14 days, beagle dogs, 0.15 ml Example 1 semisolid mixture injected, read-out: concentration in blood samples (RIA)): 1.46 ng/mL | level at 528.96 h (dog, in vivo, TIME 22.04 days, beagle dogs, 0.15 ml Example 1 semisolid mixture injected, read-out: concentration in blood samples (RIA)): 1.3 ng/mL | level at 577.44 h (dog, in vivo, TIME 24.06 days, beagle dogs, 0.15 ml Example 1 semisolid mixture injected, read-out: concentration in blood samples (RIA)): 1.11 ng/mL | level at 650.88 h (dog, in vivo, TIME 27.12 days, beagle dogs, 0.15 ml Example 1 semisolid mixture injected, read-out: concentration in blood samples (RIA)): 0.65 ng/mL | level at 698.64 h (dog, in vivo, TIME 29.11 days, beagle dogs, 0.15 ml Example 1 semisolid mixture injected, read-out: concentration in blood samples (RIA)): 0.52 ng/mL | level at 745.2 h (dog, in vivo, TIME 31.05 days, beagle dogs, 0.15 ml Example 1 semisolid mixture injected, read-out: concentration in blood samples (RIA)): 0.52 ng/mL | level at 818.64 h (dog, in vivo, TIME 34.11 days, beagle dogs, 0.15 ml Example 1 semisolid mixture injected, read-out: concentration in blood samples (RIA)): 0.5 ng/mL | level at 866.88 h (dog, in vivo, TIME 36.12 days, beagle dogs, 0.15 ml Example 1 semisolid mixture injected, read-out: concentration in blood samples (RIA)): 0.45 ng/mL | level at 912.72 h (dog, in vivo, TIME 38.03 days, beagle dogs, 0.15 ml Example 1 semisolid mixture injected, read-out: concentration in blood samples (RIA)): 0.34 ng/mL | level at 984.72 h (dog, in vivo, TIME 41.03 days, beagle dogs, 0.15 ml Example 1 semisolid mixture injected, read-out: concentration in blood samples (RIA)): 0.27 ng/mL | level at 1082.4 h (dog, in vivo, TIME 45.10 days, beagle dogs, 0.15 ml Example 1 semisolid mixture injected, read-out: concentration in blood samples (RIA)): 0.17 ng/mL | level at 1160.64 h (dog, in vivo, TIME 48.36 days, beagle dogs, 0.15 ml Example 1 semisolid mixture injected, read-out: concentration in blood samples (RIA)): 0.14 ng/mL | level at 1199.76 h (dog, in vivo, TIME 49.99 days, beagle dogs, 0.15 ml Example 1 semisolid mixture injected, read-out: concentration in blood samples (RIA)): 0.15 ng/mL | level at 1248.24 h (dog, in vivo, TIME 52.01 days, beagle dogs, 0.15 ml Example 1 semisolid mixture injected, read-out: concentration in blood samples (RIA)): 0.21 ng/mL | level at 1368.96 h (dog, in vivo, TIME 57.04 days, beagle dogs, 0.15 ml Example 1 semisolid mixture injected, read-out: concentration in blood samples (RIA)): 0.14 ng/mL | level at 1417.92 h (dog, in vivo, TIME 59.08 days, beagle dogs, 0.15 ml Example 1 semisolid mixture injected, read-out: concentration in blood samples (RIA)): 0.27 ng/mL | level at 1536.48 h (dog, in vivo, TIME 64.02 days, beagle dogs, 0.15 ml Example 1 semisolid mixture injected, read-out: concentration in blood samples (RIA)): 0.21 ng/mL | level at 1584.48 h (dog, in vivo, TIME 66.02 days, beagle dogs, 0.15 ml Example 1 semisolid mixture injected, read-out: concentration in blood samples (RIA)): 0.2 ng/mL | level at 1656.24 h (dog, in vivo, TIME 69.01 days, beagle dogs, 0.15 ml Example 1 semisolid mixture injected, read-out: concentration in blood samples (RIA)): 0.16 ng/mL | level at 1707.6 h (dog, in vivo, TIME 71.15 days, beagle dogs, 0.15 ml Example 1 semisolid mixture injected, read-out: concentration in blood samples (RIA)): 0.15 ng/mL | duration of sustained release of therapeutic levels in the blood (gel with SOMATULINE as carrier peptide and DECAPEPTYL as therapeutic agent, see Example 1): one month or longer
